Measurements published in patent publication US12404250B2, “PARP inhibitors for treating cancer and asthma” (Oregon Health & Science University, priority 2018, dated 2025).

How the values were obtained:
PARP 2 = PARP 2 (Homo sapiens, UniProt Q9UGN5); assay: In vitro IC50, PARP2; format: biochemical; details: SEM from a minimum of three dose-response experiments
PARP 3 = target: T1, PARP 3 (Homo sapiens, UniProt Q9Y6F1); assay: In vitro IC50, PARP3; format: biochemical; details: SEM from a minimum of three dose-response experiments
T1 sequence (Q9Y6F1 1-533): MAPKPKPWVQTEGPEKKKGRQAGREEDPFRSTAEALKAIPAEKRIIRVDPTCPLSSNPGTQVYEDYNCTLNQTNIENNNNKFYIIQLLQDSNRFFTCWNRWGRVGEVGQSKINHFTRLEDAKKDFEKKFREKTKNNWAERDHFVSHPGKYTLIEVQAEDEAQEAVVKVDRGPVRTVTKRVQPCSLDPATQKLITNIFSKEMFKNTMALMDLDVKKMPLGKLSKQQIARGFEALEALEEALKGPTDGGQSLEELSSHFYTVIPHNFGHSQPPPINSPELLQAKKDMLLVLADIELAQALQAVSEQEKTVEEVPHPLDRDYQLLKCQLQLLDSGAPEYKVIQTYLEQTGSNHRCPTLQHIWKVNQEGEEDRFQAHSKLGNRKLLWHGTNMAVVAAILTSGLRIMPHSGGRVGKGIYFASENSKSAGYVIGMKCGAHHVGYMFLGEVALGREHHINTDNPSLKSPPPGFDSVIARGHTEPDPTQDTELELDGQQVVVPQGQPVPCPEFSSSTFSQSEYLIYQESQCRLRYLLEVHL

PARP1/2 = target: T2, PARP1/2 (Homo sapiens, UniProt P09874); assay: H2O2-stimulated PARP1/2 activity in HEK 293T cells (Western blot); format: cell-based; details: H2O2 500 μM for 15 min, Western blot with ADPr binding reagent
T2 construct: expressed in transfected cells; host or cells: HEK 293T
Experimental: Lysates were prepared and PAR/MARylation was analyzed by Western blot with an ADP-ribose (ADPr) binding reagent. Blot was also probed with antibodies for GFP and actin. The band of interest represents auto-PARylated GFP-PARP1. […] Lysates were prepared and PAR/MARylation was analyzed by Western blot with an ADP-ribose (ADPr) binding reagent. Blot was also probed with antibodies for GFP and actin.
Lysates were prepared and PAR/MARylation was analyzed by Western blot with an ADP-ribose (ADPr) binding reagent. Blot was also probed with antibodies for GFP and actin. The band of interest represents auto-PARylated GFP-PARP1.

GFP-PARP11 = target: T3, GFP-PARP11 (Homo sapiens, UniProt Q9NR21); assay: GFP-PARP11 localization at the nuclear envelope in HeLa cells; format: cell-based; details: HeLa cells transfected with GFP-PARP11, 1 μM for 1 or 18 h
T3 construct: expressed in transfected cells; host or cells: HeLa
T3 sequence (Q9NR21 1-338): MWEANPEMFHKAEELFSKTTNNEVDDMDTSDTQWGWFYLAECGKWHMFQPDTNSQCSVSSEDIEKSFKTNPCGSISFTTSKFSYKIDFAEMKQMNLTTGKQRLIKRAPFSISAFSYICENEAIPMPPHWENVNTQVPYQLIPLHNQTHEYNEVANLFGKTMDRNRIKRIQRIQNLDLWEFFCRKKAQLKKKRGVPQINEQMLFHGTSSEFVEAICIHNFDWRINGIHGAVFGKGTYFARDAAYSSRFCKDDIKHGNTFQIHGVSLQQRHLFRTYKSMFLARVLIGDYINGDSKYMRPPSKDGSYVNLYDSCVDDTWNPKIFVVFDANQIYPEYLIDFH
Experimental: FIGS. 5A and 5B depict dissociation from the nuclear envelope in HeLa cells following ITK7 (Example 7) treatment. […] HeLa cells were transfected with GFP-PARP11 grown on glass cover-slips. After ITK7 (1 μM) treatment for 1 or 18 h cells were fixed and mounted using mounting medium containing DAPI. Images were taken on the Olympus FLUOVIEW™ 2000 microscope using an 60x/NA 1.40 oil objective (scale bar 10 μm).
HeLa cells were transfected with GFP-PARP11 grown on glass cover-slips. After ITK7 (1 μM) treatment for 1 or 18 h cells were fixed and mounted using mounting medium containing DAPI. Images were taken on the Olympus FLUOVIEW™ 2000 microscope using an 60x/NA 1.40 oil objective (scale bar 10 μm).

T2 sequence (P09874 2-1014): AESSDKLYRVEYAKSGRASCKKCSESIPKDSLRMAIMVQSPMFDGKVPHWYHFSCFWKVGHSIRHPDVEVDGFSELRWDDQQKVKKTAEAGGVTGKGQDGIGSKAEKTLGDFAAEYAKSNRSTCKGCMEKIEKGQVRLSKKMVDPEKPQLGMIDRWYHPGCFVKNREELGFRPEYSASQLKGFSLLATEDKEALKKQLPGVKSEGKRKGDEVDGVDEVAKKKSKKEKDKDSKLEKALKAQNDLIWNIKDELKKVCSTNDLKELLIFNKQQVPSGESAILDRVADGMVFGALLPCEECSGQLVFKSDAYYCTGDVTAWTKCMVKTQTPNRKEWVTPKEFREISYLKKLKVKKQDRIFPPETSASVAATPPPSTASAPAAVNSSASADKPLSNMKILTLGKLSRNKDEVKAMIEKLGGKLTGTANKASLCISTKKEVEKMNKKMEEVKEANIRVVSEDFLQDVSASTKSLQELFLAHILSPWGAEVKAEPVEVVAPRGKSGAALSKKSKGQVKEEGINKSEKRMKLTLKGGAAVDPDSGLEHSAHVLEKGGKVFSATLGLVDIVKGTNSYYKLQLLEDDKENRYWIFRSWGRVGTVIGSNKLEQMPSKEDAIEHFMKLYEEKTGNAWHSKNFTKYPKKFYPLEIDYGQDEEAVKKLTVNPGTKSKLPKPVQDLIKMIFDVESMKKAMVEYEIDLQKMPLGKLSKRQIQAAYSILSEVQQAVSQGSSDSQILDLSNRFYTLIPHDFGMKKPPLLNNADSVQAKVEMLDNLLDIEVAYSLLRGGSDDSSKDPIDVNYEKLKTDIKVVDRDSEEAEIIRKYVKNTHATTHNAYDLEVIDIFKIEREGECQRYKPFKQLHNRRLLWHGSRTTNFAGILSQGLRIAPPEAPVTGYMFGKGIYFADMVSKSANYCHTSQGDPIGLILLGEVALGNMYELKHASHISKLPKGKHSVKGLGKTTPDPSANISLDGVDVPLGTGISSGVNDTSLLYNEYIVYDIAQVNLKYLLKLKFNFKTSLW
PARP 2, sequence (Q9UGN5 whole entry): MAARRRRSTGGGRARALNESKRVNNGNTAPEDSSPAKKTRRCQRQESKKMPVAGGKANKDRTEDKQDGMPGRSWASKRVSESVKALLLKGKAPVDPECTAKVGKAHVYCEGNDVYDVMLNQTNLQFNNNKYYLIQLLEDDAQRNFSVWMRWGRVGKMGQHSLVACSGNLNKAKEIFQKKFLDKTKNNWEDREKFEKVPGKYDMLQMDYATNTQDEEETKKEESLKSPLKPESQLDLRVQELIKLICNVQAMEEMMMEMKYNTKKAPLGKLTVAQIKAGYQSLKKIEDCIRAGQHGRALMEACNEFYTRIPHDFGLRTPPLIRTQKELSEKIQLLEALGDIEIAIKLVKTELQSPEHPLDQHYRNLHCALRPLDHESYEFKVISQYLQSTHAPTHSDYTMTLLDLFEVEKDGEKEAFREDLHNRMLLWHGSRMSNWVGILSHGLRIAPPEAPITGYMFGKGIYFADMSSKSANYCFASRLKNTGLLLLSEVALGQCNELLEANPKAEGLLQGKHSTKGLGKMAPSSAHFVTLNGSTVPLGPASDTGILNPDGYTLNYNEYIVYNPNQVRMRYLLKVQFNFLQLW

CC#Cc1ccc2c(=O)[nH]c(CSc3ncccn3)nc2c1C [ITK7, 8-methyl-7-(prop-1-yn-1-yl)-2-((pyrimidin-2-ylthio)methyl)quinazolin-4(3H)-one]
IC50 (PARP 2): > 30 µM
IC50 (PARP 3): > 30 µM
Inhibition of H2O2-mediated PARP1 PARylation (PARP½ activity) in cells (PARP1/2): has no effect
Dissociation of GFP-PARP11 from the nuclear envelope (GFP-PARP11): causes GFP-PARP11 to dissociate from the nuclear envelope
